In patent US20160318928A1, “TRICYCLIC COMPOUNDS AS ANTICANCER AGENTS” (BRISTOL-MYERS SQUIBB COMPANY, priority 2013, published 2016):

Columns and labels:
BRD4 = BRD4 (Homo sapiens, UniProt O60885); assay: Time resolved fluorescence resonance energy transfer (TR-FRET) binding assay, BRD4 bromodomain; settings: one of the FRET assays described
[1] = system: JJN3R multiple myeloma cell line; assay: Human tumor xenograft model in mice, JJN3R; type: in vivo; settings: Mus musculus, JJN-3R, po, QDx7, read-out: % TGI
Source text: (§1) Human Tumor Xenograft Models in Mice
(§2) All rodents were obtained from Jackson Laboratory. (Bar Harbor, Me.), and maintained in an ammonia-free environment in a defined and pathogen-free colony. All mice were quarantined approximately 1 week prior to their use for tumor propagation and drug efficacy testing. Mice were fed food and water ad libitum. The animal care program of Bristol-Myers Squibb Pharmaceutical Research Institute is fully accredited by the American Association for Accreditation of Laboratory Animal Care (AAALAC). All experiments were performed in accordance with Bristol-Myers Squibb (BMS) animal test methods and guidelines.
(§3) Tumor xenografts were grown and maintained subcutaneously (SC) in NSG (NOD scid IL2 receptor gamma chain knockout) mice (Jackson Lab). Tumors were propagated as subcutaneous transplants using tumor fragments obtained from donor mice.
(§4) Preclinical Chemotherapy Trials
(§5) The required numbers of animals needed to detect a meaningful response were pooled at the start of the experiment and each was given bilateral subcutaneous implants of two tumor fragments (˜20 mg) with a 13-gauge trocar. Tumors were allowed to grow to the pre-determined size window (tumors outside the range were excluded) and animals were evenly distributed to various treatment and control groups. There were typically 6-8 mice per treatment and control groups, consisting of 10-12 tumors. Treatment of each animal was based on individual body weight. Treated animals were checked daily for treatment related toxicity/mortality. Each group of animals was weighed before the initiation of treatment (WO and then again following the last treatment dose (Wt2). The difference in body weight (Wt2-Wt1) provides a measure of treatment-related toxicity.
(§6) Tumor response was determined by measurement of tumors with a caliper twice a week, until the tumors reached a predetermined “target” size of 0.5 gm or 1 gm depending on the tumor type. Tumor weights (mg) were estimated from the formula:
(§7) Tumor weight=(length×width^2)÷2
(§8) Tumor response criteria are expressed in terms of tumor growth inhibition (% TGI). Tumor growth delay is defined as the difference in time (days) required for the treated tumors (T) to reach a predetermined target size compared to those of the control group (C). For this purpose, the tumor weight of a group is expressed as medium tumor weight (MTW).
(§9) Tumor growth inhibition is calculated as follows:
(§10) where, Ct=Median control tumor size at end of treatment C0=Median control tumor size at treatment initiation Tt=Median tumor size of treated group at end of treatment T0=Median tumor size of treated group at treatment initiation
(§11) Tumor response was also expressed in terms of tumor growth delay and expressed as log cell kill (LCK value), defined as the difference in time (days) required for the treated tumors (T) to reach a predetermined target size compared to those of the control group (C).
(§12) Whenever possible, antitumor activity was determined at a range of dose levels up to the maximum tolerated dose (MTD) which is defined as the dose level immediately […] which excessive toxicity (i.e. more than one death) occurred. When death occurred, the day of death was recorded. Treated mice dying prior to having their tumors reach target size were considered to have died from drug toxicity. No control mice died bearing tumors less than target size. Treatment groups with more than one death caused by drug toxicity were considered to have had excessively toxic treatments and their data were not included in the evaluation of a compound's antitumor efficacy.
(§13) For administration of BET inhibitors to rodents, compounds were dissolved in […]/10% TPGS/10% Ethanol. BET inhibitors were typically administered orally on a schedule of QDx7 or QDx10 (5 day-on-2 day-off), although other schedules had also been evaluated and shown to be efficacious

[2] = system: H187 Human Small Cell Carcinoma; assay: Human tumor xenograft model in mice, H187; type: in vivo
Source text: as §1, §2, §3, §4, §5, §6, §7, §8, §9, §10, §11, §12, §13

[2H]C([2H])([2H])c1nnn(C)c1-c1cnc2c3ccc(C(C)(C)O)cc3n(C(c3ccc(F)cc3)C3CCOCC3)c2c1 (centres unmarked) [Example 267]
IC50 (BRD4): < 5 nM
inhibition in vivo at 1 mg/kg [1]: 10%
inhibition in vivo at 4 mg/kg [1]: 67%

Cc1noc(C)c1-c1cnc2c3ccc(C(C)(C)O)cc3n(C(c3ccccc3)C3CCOCC3)c2c1 (single isomer, unassigned) [Example 1, 2-[3-(Dimethyl-1,2-oxazol-4-yl)-5-[oxan-4-yl(phenyl)methyl]-5H-pyrido[3,2-b]indol-7-yl]propan-2-ol]
% TGI ([2]; 5 mg/kg, 2QDx7): 88.0%
LCK ([2]; 5 mg/kg, 2QDx7): 1.0
% TGI ([2]; 15 mg/kg, 2QDx7): 104.0%
LCK ([2]; 15 mg/kg, 2QDx7): 1.2

[2H]C([2H])([2H])c1nnn(C)c1-c1cnc2c3cc(F)c(C(C)(C)O)cc3n([C@H](c3ccccc3)C3CCOCC3)c2c1 [Example 279, 2-{8-Fluoro-3-[4-(^2H3)methyl-1-methyl-1H-1,2,3-triazol-5-yl]-5-[(S)-oxan-4-yl(phenyl)methyl]-5H-pyrido[3,2-b]indol-7-yl}propan-2-ol]
inhibition in vivo at 1 mg/kg [1]: 88%
inhibition in vivo at 4 mg/kg [1]: 110%

Cc1nnn(C)c1-c1cnc2c3ccc(C(C)(O)C4CC4)c(F)c3n([C@H](c3ccccc3F)C3CCOCC3)c2c1 (single isomer, unassigned) [Example 436]
inhibition in vivo at 1 mg/kg [1]: 71%
inhibition in vivo at 4 mg/kg [1]: 116%

[2H]C([2H])([2H])c1nnn(C)c1-c1cnc2c3cc(F)c(C(C)(C)O)cc3n([C@H](c3ccccc3F)C3CCOCC3)c2c1 [Example 276, 2-{8-Fluoro-5-[(S)-(2-fluorophenyl)(oxan-4-yl)methyl]-3-[4-(^2H3)methyl-1-methyl-1H-1,2,3-triazol-5-yl]-5H-pyrido[3,2-b]indol-7-yl}propan-2-ol]
inhibition in vivo at 1 mg/kg [1]: 56%
inhibition in vivo at 4 mg/kg [1]: 95%

Cc1nnn(C)c1-c1cnc2c3ccc(C(C)(C)O)cc3n([C@H](c3ccccc3)C3CCOCC3)c2c1 (single isomer, unassigned) [Example 54]
% TGI ([2]; 5 mg/kg, QDx7): 100.0%
LCK ([2]; 5 mg/kg, QDx7): 0.7
% TGI ([2]; 10 mg/kg, QDx7): 102.0%
LCK ([2]; 10 mg/kg, QDx7): 0.9
